Laboratory results published in publication PMC9229165, “In Vitro Anticancer Activity Screening of Novel Fused Thiophene Derivatives as VEGFR-2/AKT Dual Inhibitors and Apoptosis Inducers” (Pharmaceuticals, 2022).
Several values for one entry are separate records, joined by “and”; a condition that tells them apart may be missing. Equal values may be shown once. Read-outs that look alike come from different tables or passages of the source.

How the values were obtained:
[1] = test system: HepG2 cells; experiment: MTT antiproliferative assay on HepG2; format: cell-based; conditions: mean ± S.D. (n = 3), read-out: Cytotoxicity in IC50, HepG2
Protocol: (§1) The antiproliferative activity of the thiophene compounds 3a–g, 4a–c, 6a, and 7a–d was evaluated by an in vitro MTT colorimetric assay on two oncogenic cell lines: liver (HepG2) and prostate (PC-3).
(§2) All cell lines (HepG2, PC-3, and nontumorigenic WI38) were supplied from VACSERA (Cairo, Egypt), cultured in DMEM (Invitrogen/Life Technologies, Waltham, MA, USA) at a density of 1.2–1.8 × 10,000 cells/well in a volume of 100 µL of the growth medium, and then incubated for 24 h, and an MTT assay was done as reported by.

[2] = test system: PC-3 cells; experiment: MTT antiproliferative assay on PC-3; format: cell-based; conditions: mean ± S.D. (n = 3), read-out: Cytotoxicity in IC50, PC-3
Protocol: as §1, §2

[3] = MTT assay on normal nononcogenic cell line WI38; format: cell-based; conditions: human, WI38 cells (normal nononcogenic cell line); MTT assay; noncancerous cell line; mean ± S.D. (n = 3); read-out: Cytotoxicity in IC50, WI38
Protocol: (§3) The aforementioned results illustrate that compounds 3b and 4c are the most promising cytotoxic agents on both cell lines and will be subjected to a thorough mechanistic study to understand their anticancer activity. However, before doing this, their selective toxicity and, thus, their safety were evaluated by measuring the IC50 values against the normal nononcogenic cell line (Wl38) by an MTT assay as listed in Table 1. […] Compound 3b gave SI of 6, and compound 4c gave SI = 12 showing better selectivity toward cancer cells than doxorubicin with SI = 5.
as §2

[4] = test system: WI38 cells; experiment: MTT assay on normal nononcogenic cell line WI38; format: cell-based; conditions: calculated by dividing the IC50 of WI38/PC-3, SI > 2 is considered safe
Protocol: as §3, §2

[5] = biological target: T1, VEGFR-2 (Homo sapiens, UniProt P35968); experiment: VEGFR-2 phosphorylation cell-based ELISA in HepG2 cells; conditions: compounds at their formerly determined IC50
T1 sequence (P35968 20-1356): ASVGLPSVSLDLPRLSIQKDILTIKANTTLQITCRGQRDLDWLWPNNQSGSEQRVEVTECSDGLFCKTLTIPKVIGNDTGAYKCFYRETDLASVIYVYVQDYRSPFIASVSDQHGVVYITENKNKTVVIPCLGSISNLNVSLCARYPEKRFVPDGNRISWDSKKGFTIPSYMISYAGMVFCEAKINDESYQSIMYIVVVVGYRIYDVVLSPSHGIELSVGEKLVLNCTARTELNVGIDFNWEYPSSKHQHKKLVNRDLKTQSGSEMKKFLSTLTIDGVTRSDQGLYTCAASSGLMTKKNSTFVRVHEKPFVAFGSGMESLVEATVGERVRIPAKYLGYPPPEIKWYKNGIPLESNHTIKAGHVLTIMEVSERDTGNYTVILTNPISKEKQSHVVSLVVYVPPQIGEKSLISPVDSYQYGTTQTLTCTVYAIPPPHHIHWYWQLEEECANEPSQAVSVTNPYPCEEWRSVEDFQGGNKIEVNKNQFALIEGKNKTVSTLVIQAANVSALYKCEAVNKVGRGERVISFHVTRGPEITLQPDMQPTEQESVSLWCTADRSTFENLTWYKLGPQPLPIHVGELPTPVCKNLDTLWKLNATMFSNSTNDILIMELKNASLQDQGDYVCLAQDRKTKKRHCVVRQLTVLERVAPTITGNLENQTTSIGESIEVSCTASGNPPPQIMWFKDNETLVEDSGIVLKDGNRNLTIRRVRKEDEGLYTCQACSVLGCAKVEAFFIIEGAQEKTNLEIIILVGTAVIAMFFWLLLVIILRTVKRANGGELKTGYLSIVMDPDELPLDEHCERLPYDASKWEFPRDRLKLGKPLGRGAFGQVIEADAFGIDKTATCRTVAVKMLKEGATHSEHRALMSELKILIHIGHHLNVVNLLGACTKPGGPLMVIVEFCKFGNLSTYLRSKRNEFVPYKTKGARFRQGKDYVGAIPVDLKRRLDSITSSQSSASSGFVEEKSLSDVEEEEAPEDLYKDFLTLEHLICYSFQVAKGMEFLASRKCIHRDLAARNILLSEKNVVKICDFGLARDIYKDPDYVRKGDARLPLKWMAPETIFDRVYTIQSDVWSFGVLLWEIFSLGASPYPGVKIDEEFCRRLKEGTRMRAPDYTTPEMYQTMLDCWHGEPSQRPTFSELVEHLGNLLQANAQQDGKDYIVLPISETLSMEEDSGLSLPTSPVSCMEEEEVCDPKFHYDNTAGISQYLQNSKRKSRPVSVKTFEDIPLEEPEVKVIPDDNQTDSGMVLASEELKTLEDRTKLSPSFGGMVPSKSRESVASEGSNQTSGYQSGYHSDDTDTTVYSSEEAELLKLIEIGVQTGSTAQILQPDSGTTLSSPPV
Protocol: VEGFR-2 phosphorylation was assayed using VEGFR2 Antibody (Phospho-Tyr951) (OAEC00085, AVIVA SYSTEM BIOLOGY) [53], while Akt-1 was assayed by Mouse/Human/Rat Phospho-AKT1 (Ser473) (Cell-Based Phosphorylation ELISA) ELISA Kit-LS-F1447 (LSBio) according to manufacturer’s instructions [54].

[6] = biological target: T2, AKT-1 (Homo sapiens, UniProt P31749); experiment: Akt kinase activity assay kit on cell lysate; format: biochemical; conditions: LY2780301 as reference
T2 sequence (P31749 whole entry): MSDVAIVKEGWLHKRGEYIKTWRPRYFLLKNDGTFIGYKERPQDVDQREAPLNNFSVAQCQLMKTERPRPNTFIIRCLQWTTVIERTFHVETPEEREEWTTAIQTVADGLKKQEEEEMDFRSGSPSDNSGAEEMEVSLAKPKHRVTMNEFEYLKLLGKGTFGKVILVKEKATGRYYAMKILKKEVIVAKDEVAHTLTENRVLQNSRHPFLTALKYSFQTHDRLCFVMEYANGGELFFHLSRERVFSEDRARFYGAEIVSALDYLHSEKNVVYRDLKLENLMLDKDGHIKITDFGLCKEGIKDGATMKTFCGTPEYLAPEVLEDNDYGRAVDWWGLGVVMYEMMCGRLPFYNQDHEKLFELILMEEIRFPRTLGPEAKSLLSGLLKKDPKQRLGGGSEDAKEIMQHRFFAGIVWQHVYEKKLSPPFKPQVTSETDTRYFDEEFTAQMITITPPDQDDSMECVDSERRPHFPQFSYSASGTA
Text: (§5) The outcomes were expressed as IC50 values (mean standard deviation) calculated from the dose–response curves and their linear regression equations.

[7] = test system: HepG2 cells; experiment: Flow cytometric cell cycle analysis; format: cell-based; conditions: HepG2, 48 h, at IC50
Protocol: AKT-1 is known for its downstream activation of several proteins involved in cell proliferation and apoptosis evasion. In addition, it is reported to be involved in G1–S checkpoint transition and proliferation.
(§4) Analyzing the DNA content in the cell cycle phases by flow cytometry was conducted using FACSCalibur (Becton Dickinson, Franklin Lakes, NJ, USA) following the manufacturer’s manual. The cell cycle analysis procedures were as reported by on HepG2 cells after their treatment with the most promising derivatives for 48 h. Further assessment of the proapoptotic effect was determined by the Annexin V-FITC/PI apoptosis detection kit (Catalog # K101-25, BD Biosciences, San Diego, CA, USA).

[8] = test system: HepG2 cells; experiment: Annexin V-FITC/PI apoptosis detection; format: cell-based; conditions: HepG2, 48 h
Protocol: Annexin V/PI staining with flow cytometric analysis was adapted to measure early and late apoptotic cells and necrotic cells as presented in Table 3 and Figure 6.
as §4

[9] = test system: caspase-3; experiment: Active caspase-3 ELISA in HepG2 cells; format: cell-based, human
Protocol: Apoptosis is known to be carried out through three different pathways: intrinsic, extrinsic, and granzyme pathways. One of the controlling proteins in apoptosis is the cysteine protease named caspase with the chief executer caspase 3 [46, 47]. Accordingly, assessing the effect of 3b and 4c on the active caspase-3 level was done in HepG2 cells taking doxorubicin as the reference drug.
The colorimetric ELISA assay for active caspase-3 detection was carried out utilizing Invitrogen™ Caspase-3 (Cleaved) Human ELISA-Kit (KHO1091, CA, USA) according to the manufacturer’s procedures. ROBONIK P2000 ELISA reader was used at 450 nm, and the standard curve was obtained by plotting the mean absorbance of each standard concentration against human caspase-3 concentrations.

[10] = biological target: T1, VEGFR-2; experiment: VEGFR2 (KDR) kinase assay kit; format: biochemical; set-up: purchased BPS Bioscience 40325; conditions: read-out: VEGFR-2 kinase inhibitory activity IC50
Text: as §5

[11] = biological target: T2, AKT-1; experiment: Phospho-AKT1 (Ser473) cell-based phosphorylation ELISA in HepG2 cells; set-up: endogenous in cells; host or cells: HepG2
Protocol: To investigate the success of the design strategy developed in this work, the effect of the promising candidates 3b and 4c was assessed on AKT-1, a crucial protein, by determining their phosphorylation inhibition rate in HepG2 cells and measuring their biochemical kinase inhibitory activity.
VEGFR-2 phosphorylation was assayed using VEGFR2 Antibody (Phospho-Tyr951) (OAEC00085, AVIVA SYSTEM BIOLOGY), while Akt-1 was assayed by Mouse/Human/Rat Phospho-AKT1 (Ser473) (Cell-Based Phosphorylation ELISA) ELISA Kit-LS-F1447 (LSBio) according to manufacturer’s instructions.

| SMILES | melting point | IC50 ([1]; Homo sapiens, HepG2, MTT assay) | IC50 ([2]; Homo sapiens, PC-3, MTT assay) | further results |
| --- | --- | --- | --- | --- |
| CN1CCc2sc3nc(-c4ccccc4)[nH]c(=O)c3c21 [3a, 5-Methyl-2-phenyl-3,5,6,7-tetrahydro-4H-pyrrolo[2′,3′:4,5]thieno[2,3-d]pyrimidin-4-one] | > 250 °C | 7.96 ± 0.37 µM | 29.6 ± 1.66 µM |  |
| CN1CCc2sc3nc(-c4ccc(Br)cc4)[nH]c(=O)c3c21 [3c, 2-(4-Bromophenyl)-5-methyl-3,5,6,7-tetrahydro-4H-pyrrolo[2′,3′:4,5]thieno[2,3-d]pyrimidin-4-one] | 113 to 114 °C | 107 ± 4.94 µM | 10.5 ± 0.59 µM |  |
| CN1CCc2sc3nc(-c4ccc(F)cc4)[nH]c(=O)c3c21 [3d, 2-(4-Fluorophenyl)-5-methyl-3,5,6,7-tetrahydro-4H-pyrrolo[2′,3′:4,5]thieno[2,3-d]pyrimidin-4-one] | 108 to 110 °C | 13.4 ± 0.62 µM | 19 ± 1.06 µM |  |
| Cc1ccc(-c2nc3sc4c(c3c(=O)[nH]2)N(C)CC4)cc1 [3e, 5-Methyl-2-(p-tolyl)-3,5,6,7-tetrahydro-4H-pyrrolo[2′,3′:4,5]thieno[2,3-d]pyrimidin-4-one] | 155 to 156 °C | 22.4 ± 1.03 µM | 39.7 ± 2.22 µM |  |
| COc1ccc(-c2nc3sc4c(c3c(=O)[nH]2)N(C)CC4)cc1 [3f, 2-(4-Methoxyphenyl)-5-methyl-3,5,6,7-tetrahydro-4H-pyrrolo[2′,3′:4,5]thieno[2,3-d]pyrimidin-4-one] | 117 to 118 °C | 4.3 ± 0.2 µM | 7.47 ± 0.42 µM | IC50 ([1]; MTT assay): 4.3 ± 0.2 µM; IC50 ([2]; MTT assay): 7.47 ± 0.42 µM |
| COc1cc(-c2nc3sc4c(c3c(=O)[nH]2)N(C)CC4)cc(OC)c1OC [3g, 5-Methyl-2-(3,4,5-trimethoxyphenyl)-3,5,6,7-tetrahydro-4H-pyrrolo[2′,3′:4,5]thieno[2,3-d]pyrimidin-4-one] |  | 3.77 ± 0.17 µM | 20.5 ± 1.15 µM |  |
| CCOC(=O)c1c(NC(=S)NC)sc2c1N(C)CC2 [4a, Ethyl 4-methyl-2-(3-methylthioureido)-5,6-dihydro-4H-thieno[3,2-b]pyrrole-3-carboxylate] | 132 to 134 °C | 41.1 ± 1.9 µM | 1.84 ± 0.1 µM |  |
| CCNC(=S)Nc1sc2c(c1C(=O)OCC)N(C)CC2 [4b, Ethyl 2-(3-ethylthioureido)-4-methyl-5,6-dihydro-4H-thieno[3,2-b]pyrrole-3-carboxylate] | 135 to 136 °C | 34.2 ± 1.58 µM | 19.3 ± 1.08 µM |  |
| CCOC(=O)c1c(NC(=S)Nc2cc(C)ccc2Cl)sc2c1N(C)CC2 [4c, Ethyl 2-(3-(2-chloro-5-methylphenyl)thioureido)-4-methyl-5,6-dihydro-4H-thieno[3,2-b]pyrrole-3-carboxylate] |  | 3.02 µM | 3.12 ± 0.17 µM | IC50 ([1]; MTT assay): 3.02 ± 0.14 µM; IC50 [3]: 35.3 ± 1.92 µM; Selectivity Index (SI) [4]: 12 and 11.68; VEGFR-2 phosphorylation inhibition [5]: 70%; IC50 [6]: 4.6 µM; % Content of DNA, G0:G1 [7]: 53.28%; % Content of DNA, G2:M [7]: 1.48%; % Content of DNA, PreG1 [7]: 29.81%; % Content of DNA, S [7]: 45.24%; Increase in early apoptotic cells over untreated cells [8]: 7 fold; Increase in late apoptotic cells over untreated cells [8]: 97 fold; Apoptosis, Total (cells percentage) ([8]; at IC50): 29.81%; Apoptosis, Early (cells percentage) ([8]; at IC50, Q2 in Figure 6): 3.85%; Apoptosis, Late (cells percentage) ([8]; at IC50, Q3 in Figure 6): 16.55%; Necrosis (cells percentage) ([8]; at IC50, Q4 in Figure 6): 9.41%; Increase in active caspase-3 level over the untreated cells [9]: six-fold; IC50 [10]: 0.075 µM; AKT-1 phosphorylation inhibition rate [11]: 71.6% |
| COc1cccc2c1C(=O)c1c(O)c3c(c(O)c1C2=O)C[C@@](O)(C(=O)CO)C[C@@H]3O[C@H]1C[C@H](N)[C@H](O)[C@H](C)O1 [Doxorubicin, reference compound] |  | 2.09 ± 0.1 µM | 2.53 ± 0.14 µM | IC50 [3]: 9.84 ± 0.54 µM; Selectivity Index (SI) [4]: 4.69; Selectivity Index (SI) ([4]; listed as doxorubicin): 5; Increase in active caspase-3 level over the untreated cells [9]: seven-fold |
| CN(C)CCn1cc(-c2ccc(F)c(C(F)(F)F)c2)nc1C1CCN(c2ncnc3c2CC(=O)N3)CC1 [LY2780301, reference compound] |  |  |  | IC50 [6]: 4.62 µM; AKT-1 phosphorylation inhibition rate [11]: 68.6% |

Continued, in another order:

| melting point | SMILES | IC50 ([1]; Homo sapiens, HepG2, MTT assay) | IC50 ([2]; Homo sapiens, PC-3, MTT assay) | further results |
| --- | --- | --- | --- | --- |
| 140 to 141 °C | CCOC(=O)c1c(/N=C(/NC)SCC(=O)Nc2ccc(Cl)cc2)sc2c1N(C)CC2 [6a, Ethyl (Z)-2-((((2-((4-chlorophenyl)amino)-2-oxoethyl)thio)(methylamino)methylene)amino)-4-methyl-5,6-dihydro-4H-thieno[3,2-b]pyrrole-3-carboxylate] | 9.8 ± 0.45 µM | 0.5 ± 0.03 µM |  |
| 82 to 83 °C | CCOC(=O)c1c(/N=C(/Nc2cc(C)ccc2Cl)SCC(=O)Nc2ccc(Cl)cc2)sc2c1N(C)CC2 [7a, Ethyl (Z)-2-((((2-chloro-5-methylphenyl)amino)((2-((4-chlorophenyl)amino)-2-oxoethyl)thio)methylene)amino)-4-methyl-5,6-dihydro-4H-thieno[3,2-b]pyrrole-3-carboxylate] | 27.3 ± 1.26 µM | 81.1 ± 4.54 µM |  |
| > 250 °C | CCOC(=O)c1c(/N=C(/Nc2cc(C)ccc2Cl)SCC(=O)Nc2ccc(Br)cc2)sc2c1N(C)CC2 [7b, Ethyl (Z)-2-((((2-((4-bromophenyl)amino)-2-oxoethyl)thio)((2-chloro-5-methylphenyl)amino)methylene)amino)-4-methyl-5,6-dihydro-4H-thieno[3,2-b]pyrrole-3-carboxylate] | 2.48 ± 0.11 µM | 26.6 ± 1.49 µM |  |
| 110 to 112 °C | CCOC(=O)c1c(/N=C(/Nc2cc(C)ccc2Cl)SCC(=O)Nc2ccc(OC)cc2)sc2c1N(C)CC2 [7c, Ethyl (Z)-2-((((2-chloro-5-methylphenyl)amino)((2-((4-methoxyphenyl)amino)-2-oxoethyl)thio)methylene)amino)-4-methyl-5,6-dihydro-4H-thieno[3,2-b]pyrrole-3-carboxylate] | 39.6 ± 1.83 µM | 9.72 ± 0.54 µM |  |
| 118 to 120 °C | CCOC(=O)c1c(/N=C(/Nc2cc(C)ccc2Cl)SCC(=O)Nc2ccc(C)cc2)sc2c1N(C)CC2 [7d, Ethyl (Z)-2-((((2-chloro-5-methylphenyl)amino)((2-oxo-2-(p-tolylamino)ethyl)thio)methylene)amino)-4-methyl-5,6-dihydro-4H-thieno[3,2-b]pyrrole-3-carboxylate] | 8.91 ± 0.41 µM | 6.35 ± 0.36 µM |  |
